One test concerns HEK293. Put plainly: inhibitors of LMP1-driven NF-kB reporter, dose response, cell-based, HEK293, luciferase, cherry-pick (AID 588343). In kind it is functional. The settings on record: Homo sapiens.
Test [1] concerns the target Heat shock protein HSP 90-alpha (Homo sapiens, UniProt P07900). In kind it is functional, organism-based.
The next test relates to INS1. Put plainly: beta cell apoptosis inhibitors, cytokine rescue, dose response, luminescence, retest (AID 449756).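 Note: cell death triggered by IL-1 beta plus TNF-alpha plus IFN-gamma mixture; protective hits raise ATP signal compared with cytokine alone wells.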 It counts as functional, cell-based. To be noted: Rattus norvegicus.
Test [2] in a line: NIH-3T3 fibroblast cytotoxicity, dose response, cytotoxicity control, cell-based, fluorescence, Alamar Blue, secondary assay (AID 2327).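 Note: NIH-3T3 mouse fibroblasts cultured with fluconazole at 8 µg/mL.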 It counts as functional.
The target in a further test is Large T antigen (Simian virus 40, UniProt P03070). It counts as functional, Betapolyomavirus macacae.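 Note: Confirmatory-stage PubChem screen for compounds that inhibit SV40 T antigen.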
The nature of test [3]: Luminescence Cell-Based Dose Response HTS to Identify Inhibitors of 5'UTR Stem-Loop Driven Prion Protein mRNA Translation in H4 Neuroglioblastoma Cells. [Related pubchem assays: 1827 (Project Summary), 1813 (Primary HTS)]. It counts as functional.
Test [4] in a line: inhibitors of SNCA 5'UTR-driven reporter translation, confirmation, H4 neuroglioma cells, luminescence (AID 1988). In kind it is functional, cell-based.
Another test is described as follows: cells. In kind it is functional.
The nature of test [5]: THP-1 cell cytotoxicity, dose response, cytotoxicity control for non-replicating M. tuberculosis project (AID 489025). It counts as functional.
Test [6] can be described thus: inhibitors of clade B AD8 Env fusion, dose response, cell-based, cherry-pick (AID 652062).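 Note: luciferase signal from cell-cell fusion driven by HIV-1 clade B AD8 Env; potency is for inhibitors of fusion seen as a drop in luminescence.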 In kind it is functional.
The nature of test [7]: inhibitors of HIV Env-driven cell fusion, dose response, cherry-pick (AID 652057). It counts as functional, cell-based.

Activity calls are given as the source filed them.

Sequence of Large T antigen (P03070 whole entry): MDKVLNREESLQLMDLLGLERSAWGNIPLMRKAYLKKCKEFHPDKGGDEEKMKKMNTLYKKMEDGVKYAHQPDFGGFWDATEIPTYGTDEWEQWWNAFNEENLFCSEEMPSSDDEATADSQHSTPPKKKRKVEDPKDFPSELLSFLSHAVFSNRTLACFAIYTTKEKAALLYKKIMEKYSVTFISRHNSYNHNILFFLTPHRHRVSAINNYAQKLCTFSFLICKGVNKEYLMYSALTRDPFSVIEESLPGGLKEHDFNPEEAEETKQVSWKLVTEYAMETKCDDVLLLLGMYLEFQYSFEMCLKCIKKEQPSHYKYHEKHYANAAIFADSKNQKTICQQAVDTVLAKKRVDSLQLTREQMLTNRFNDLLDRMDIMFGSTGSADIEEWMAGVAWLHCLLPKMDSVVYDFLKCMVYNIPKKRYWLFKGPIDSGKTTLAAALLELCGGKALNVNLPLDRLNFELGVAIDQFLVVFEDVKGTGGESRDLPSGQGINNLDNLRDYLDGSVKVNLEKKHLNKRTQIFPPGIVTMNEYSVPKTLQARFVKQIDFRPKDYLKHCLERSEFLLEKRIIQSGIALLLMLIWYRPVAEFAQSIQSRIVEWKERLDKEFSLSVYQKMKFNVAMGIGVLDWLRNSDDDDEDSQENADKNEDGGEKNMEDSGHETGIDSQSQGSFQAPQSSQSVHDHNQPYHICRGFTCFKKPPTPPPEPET

In general, AC50 refers to the concentration at which the activity in the assay is half-maximal. Take `CN(C1CCCCC1)S(=O)(=O)c1ccc(C(=O)N2CCN(c3nc4ccccc4s3)CC2)cc1`: in the test with HEK293, the AC50 was 2.85 µM (active).

As to `N#Cc1c2ccc([N+](=O)[O-])cc2[n+]([O-])n1-c1ccccc1`, the AC50 was 2.86 µM (active) in [1] and 3.15 µM (active) with INS1.

What is called EC50 is the concentration at which the effect is half-maximal. The term IC50 denotes the point on the concentration scale where inhibition reaches its midpoint. For `O=c1cc(CN2CCN(Cc3ccccc3)CC2)c2ccc(O)c(O)c2o1`, the EC50 in [2] was > 160 µM (inactive). The half-maximal inhibitory concentration (IC50) at Large T antigen is 4.91 µM (active).

With `CCc1nn2cc(-c3ccccc3)nc2s1`, the AC50 with HEK293 was 2.06 µM (active).

As to `CCn1nnc2cc(C(=O)NCCc3ccccc3F)ccc21`, the figures for the EC50 in test [3] and in test [4] were 4.08 µM (active) and 5.03 µM (active), respectively. Moreover, in the test with HEK293, the AC50 is 3.14 µM (active).

Consider `COc1ccc(/C=C2/C(=O)N(Cc3ccco3)C(=O)N(C(C)C)C2=O)cc1`, for which the IC50 on Large T antigen was 80.6 µM (active).

For the molecule `CN1C(=O)C(=C(Nc2ccc(F)cc2)c2ccccc2Cl)C(=O)N(C)C1=O`, the AC50 in test [1] was 3.17 µM (active).

The term CC50 denotes the concentration that lowers cell viability or growth by half. `O=C(N/N=C/C(Br)=C/c1ccccc1)c1ccncc1`: the half-maximal inhibitory concentration (IC50) in “cells” was 0.61 µM (active). Besides, the CC50 in [5] was > 40 µM (active).

For the molecule `CC(C)COC(=O)N(C)C[C@H]1OCc2ccccc2-c2c(n(C)c3ccccc23)C(=O)N([C@H](C)CO)C[C@@H]1C`, the AC50 was 0.304 µM (active) in test [6] and < 0.26 µM (active) in test [7].

Take `O=C(N/N=C/c1ccc(O)c(O)c1)c1cccc(S(=O)(=O)N2CCCC2)c1`: the IC50 on Large T antigen was 4.72 µM (active).

The record behind these values is ChEMBL document CHEMBL1201862, “PubChem BioAssay data set” (2004).
